# From patent publication KR20110128542A, “Egcg를 유효성분으로 함유하는 쇼그렌 증후군, 베체트 증후군, 강직성척추염 또는 루프스의 예방 또는 치료용 조성물” (가톨릭대학교 산학협력단, priority 2010, dated 2011)
# “Also recorded” adds a separate entry of the source.
# What was measured:
# [1] = tested on: Th17 cells (Th17 세포); assay: Th17 cells in spleen of lupus syndrome mice, immunostaining (CD4, IL-17) and confocal microscopy; assay type: in vivo, mouse; details: EGCG 10uM, intraperitoneal, 10 injections, confocal microscopy, Fig. 3
# [2] = tested on: Foxp3 mRNA; assay: RT-PCR of Foxp3 mRNA in mouse splenocytes under Th17 differentiation conditions (Treg activation); assay type: cell-based; details: EGCG 0, 1, 10, 50 ng/ml, Fig. 2b
# [3] = tested on: Treg cells (Treg 세포); assay: Treg cells in spleen of lupus syndrome mice, immunostaining (CD4, CD25, Foxp3) and confocal microscopy; assay type: in vivo, mouse; details: EGCG 10uM, intraperitoneal, 10 injections, Fig. 3
# [4] = tested on: IL-17 produced from Th17 cells (Th17세포); assay: IL-17 production by mouse splenocytes under Th17 differentiation conditions (ELISA of culture medium, 3 days); assay type: cell-based; details: Th17 conditions (anti-CD3, anti-CD28, anti-IFNr, anti-IL-4, TGF beta), EGCG 0, 1, 10, 50 uM, Fig. 1
# [5] = tested on: IL-17 mRNA; assay: RT-PCR of IL-17 mRNA in mouse splenocytes under Th17 differentiation conditions; assay type: cell-based; details: EGCG 0, 1, 10, 50 ng/ml, Fig. 2a
# [6] = tested on: Treg cells (Treg 세포); assay: Treg population in splenocytes of lupus syndrome mice under Treg differentiation conditions, FACS (CD4, CD25, Foxp3); assay type: cell-based; details: lupus mouse splenocytes, anti-CD3 2 ug/ml + TGF beta 5ng/ml, EGCG 10ng/ml, 72 h
smiles,measurement,setting,value
"O=C(O[C@@H]1Cc2c(O)cc(O)cc2O[C@@H]1c1cc(O)c(O)c(O)c1)c1cc(O)c(O)c(O)c1 [EGCG, (-)-epigallocatechin gallate]","IL-17 expression (degree of Th17 cell differentiation), compared with control",[1],EGCG를 처리하지 않은 대조군이 처리한 군에 비해 녹색의 IL-17이 더 많이 발현
same,Foxp3 expression (mRNA),[2],EGCG를 처리하지 않은 군에 비해 현저하게 증가; also recorded: 농도 의존적으로 점점 증가
same,Treg cell activation in spleen,[3]; CD4/CD25 co-expression,비장에서 Treg 세포가 활성화 되었음
same,"Foxp3 expression in nucleus, compared with control","[3]; spleen, confocal microscopy",대조군에 비해 많이 발현
same,amount of IL-17 cytokine produced,[4],EGCG를 처리하지 않은 군에 비해 현저하게 감소; also recorded: EGCG 농도 의존적으로 IL-17의 생성이 감소
same,IL-17 expression (mRNA),[5],농도 의존적으로 점점 감소
same,fold induction at 0.01 µg/mL,"[6]; Splenocyte, printed 'about 10-fold or more', read-out: increase of Treg cells compared with untreated group",≥ 10
same,Foxp3 expression,"[6]; untreated control 2.69, Fig. 4",21.57
